Reference: patent US5652124A (priority 1989, dated 1997)
Like-named read-outs stand apart in the source and are kept apart here. Blank lines part the entries; values can stand above or below the compound they belong to.

How the values were obtained:
[1] = Improvement of water-solubility: standing of saccharide-transfer reaction solution at 4° C.; assay type: physicochemical; details: 4° C. for 2 days
[2] = cited from earlier work
[3] = test system: α-glucosidase (EC 3.2.1.20) derived from pig liver; test: Stability against hydrolysis by α-glucosidase; assay type: in vitro ADME
Description: Acid hydrolysis of the α-glucosyl hesperidin led to the formation of 1 mole of rhamnose and 2 moles of D-glucose per 1 mole hesperidin, while an α-glucosidase, obtained by the extraction from pig liver and partial purification, hydrolyzed α-glucosyl hesperidin into hesperidin and D-glucose.

dd mice = test: Acute toxicity test; assay type: in vivo; details: oral, 7 week-old dd mice
Description: As the result, no mouse died when administered with up to […] of the specimen, and higher dose was difficult.

Compound: COc1ccc([C@@H]2CC(=O)c3c(O)cc(O[C@@H]4O[C@H](CO[C@@H]5O[C@@H](C)[C@H](O)[C@@H](O)[C@H]5O)[C@@H](O)[C@H](O)[C@H]4O)cc3O2)cc1O [hesperidin]
appearance of solution after standing [1]: white turbidity
solubility in water ([2]; ambient temperature): about 0.002 w/v %
solubility in water (weight per volume of water) ([2]; ambient temperature): about 1 g in 50 liters of water
solubility in water (in words) [2]: hardly soluble

Compound: COc1ccc(C2CC(=O)c3c(O)cc(O[C@@H]4O[C@H](CO[C@@H]5O[C@@H](C)[C@H](O)[C@@H](O)[C@H]5O)[C@@H](O[C@H]5O[C@H](CO)[C@@H](O)[C@H](O)[C@H]5O)[C@H](O)[C@H]4O)cc3O2)cc1O (stereo partly drawn) [α-glucosyl hesperidin]
hydrolysis by α-glucosidase into hesperidin and D-glucose ([3]; α-glucosidase from pig liver): hydrolyzed

Compound: COc1ccc(C2CC(=O)c3c(O)cc(O[C@@H]4O[C@H](CO[C@@H]5O[C@@H](C)[C@H](O)[C@@H](O)[C@H]5O)[C@@H](O[C@H]5O[C@H](CO)[C@@H](O)[C@H](O)[C@H]5O)[C@H](O)[C@H]4O)cc3O2)cc1O (stereo partly drawn) [α-glycosyl hesperidin specimen [II]]
toxicity (conclusion in words) (dd mice): extremely low

hydrolysis by α-glucosidase into hesperidin and D-glucose [3]: hydrolyzable
Compound: α-glycosyl hesperidin
